Assay results taken from US11840523B2, “IRE1α inhibitors and uses thereof” (The Regents of the University of California, priority 2020, dated 2023).
Blank lines part the entries; values can stand above or below the compound they belong to.

Legend:
[1] = biological target: T1, IRE1α (Homo sapiens (Human), UniProt O75460); experiment: In vitro kinase activity assay (IC50 IRE1α kinase inhibition); format: biochemical
Procedure: A construct containing the cytosolic kinase and RNase domains of human IRE1α (residues 547-977, IRE1α*) was expressed in SF9 insect cells by using the Bac-to-Bac baculovirus expression system (Invitrogen) with a His6 tag at the N-terminus and purified with a nickel-nitriloacetic acid (Qiagen) column. To generate dP-IRE1α*, we removed basal phosphorylation sites by incubating IRE1α* with λ-PPase (New England Biolabs) at a molar ratio of 5:1 (IRE1α*: X-PPase) in 50 mM HEPES pH 7.5, 100 mM NaCl, 1 mM MnCl2, 2 mM dithiothreitol (DTT) and 0.01% Brij 35 detergent (v/v) overnight at 4° C. Dephosphorylation was verified through western blotting using a universal phospho-protein detection agent (biotin-pIMAGO (Tymora Analytical Operations, Cat. No.: FL800) and imaged using a streptavidin-linked fluorophore.
In Vitro Kinase Activity Assay
Inhibitors (initial concentration of 10 or 60 μM, three-fold serial dilutions) were incubated with IRE1α* in cleavage buffer (20 mM HEPES, 0.05% Triton X-100 (v/v), 50 mM KCl, 1 mM MgCl2, 1 mM DTT, pH 7.5) for 30 min, followed by incubation with 10 μCi [γ^32P] ATP(3,000 Ci mmol^−1, PerkinElmer) at 23° C. for 3 hours. Samples were then spotted onto glass fiber paper (Easytab-C Glass Fiber Filter Paper, Perkin Elmer) and washed in twice with 0.5% phosphoric acid and autoradiographed using a GE Typhoon FLA 9000 Imager. Blots were quantitated using ImageQuant software. The percent inhibition was quantified by setting the background (no kinase well) as 0 and standardizing to IRE1α* without compound treatment (IRE1α*+DMSO). Dose-response curves were fit using “one-site fit logIC50” parameter using GraphPad Prism analysis software.
Compound Characterization (IC50 IRE1α Kinase Inhibition)

[2] = biological target: dpIRE1α* (Homo sapiens (Human), UniProt O75460); experiment: In vitro Kdimer assay (XBP1-mini substrate cleavage) with dpIRE1α*; format: biochemical; settings: FIG. 4; for fold lowering of Kdimer of dpIRE1α* when kinase domain complexed to ligand: versus apo dpIRE1α*, FIG. 1D
From the text: (§1) In order to better understand how to achieve an optimal intermediate RNase activation state through engagement of IRE1α's kinase domain, we first established a quantitative in vitro framework for characterizing how ATP-binding site occupancy influences RNase activity. […] This dimeric state-commonly referred to as the “back-to-back” dimer—is characterized by an extensive interface between the kinase and RNase domains of each IRE1α protomer; this dimeric state can be promoted through mass action as IRE1α concentration is raised. […] Furthermore, ligands that occupy the ATP-binding site of the kinase domain can also stimulate IRE1α's RNase activity by promoting dimer formation. We measured the ability of a purified, recombinant kinase/RNase domain construct of IRE1α-called IRE1α* to cleave a FRET-quenched XBP1 RNA mini-substrate as a function of IRE1α* concentration, in order to provide a quantitative metric of IRE1α's dimer affinity (Kdimer) (FIG. 1). […]
IRE1α* or dPIRE1α* was titrated from either 2 μM or 4 μM in two-fold serial dilutions in assay buffer (20 mM Tris, 50 mM sodium chloride, 1 mM MgCl2, 2 mM DTT, 0.05% Triton X-100 (v/v), pH 7.5) and incubated with 50 μM inhibitor for 30 minutes at room temperature. […] Fluorescence was detected on a Perkin Elmer Envision Microplate Reader at excitation and emission wavelengths of 650 nm and 665 nm. Reaction process was monitored real time in 10-second intervals for at least 30 minutes. Initial rates of XBP1-cleavage were determined for each respective IRE1α* of dpIRE1α* concentration. Specific activity was then determined by dividing rate (RFU/s) by the respective IRE1α* of dpIRE1α* used (RFU/s*[IRE1α]). Kdimer values were determined by fitting these values using the non-linear regression ‘one-site total’ binding parameter in GraphPad Prism analysis software.

[3] = biological target: T1, IRE1α; experiment: In vitro Kdimer assay (XBP1-mini substrate cleavage) with IRE1α*; format: biochemical; settings: ligand-bound IRE1α*; FIG. 1E, FIG. 5
From the text: as §1
IRE1α* or dPIRE1α* was titrated from either 2 μM or 4 μM in two-fold serial dilutions in assay buffer (20 mM Tris, 50 mM sodium chloride, 1 mM MgCl2, 2 mM DTT, 0.05% Triton X-100 (v/v), pH 7.5) and incubated with 50 μM inhibitor for 30 minutes at room temperature. […] Fluorescence was detected on a Perkin Elmer Envision Microplate Reader at excitation and emission wavelengths of 650 nm and 665 nm. […]

[4] = tested on: XBP1 splicing in INS-1 cells; experiment: XBP1 splicing in ER-stressed INS-1 cells; format: cell-based, rat; settings: INS-1 cells treated with brefeldin A or thapsigargin; FIG. 6
Procedure: INS-1s (rat insulinoma beta cells) were grown in RPMI, 10% FBS buffer (v/v), 1 mM sodium pyruvate, 10 mM HEPES, 2 mM glutamine and 50 μM β-mercaptoethanol on Poly-D-Lysine coated tissue culture flasks. IRE1α (murine) was cloned into a pcDNA5/FRT/TO. INS-1 FRT/TO cells were grown following the protocol above. INS-1 FRT/TO cells were transfected with 2 μg IRE1α-pcDNA5/FRT/TO and 2 μg pOG44 using Lipofectamine 2000 (Thermo Fisher). Cell media was exchanged the next day and cells were allowed grow for another day before passaging. Selection was performed using 50 μg/mL Hygromycin-B (Thermo Fisher) over about two weeks until all un-transfected cells have died and colonies have appeared in transfected cells. Stably integrated cells were maintained in RPMI, 10% FBS buffer (v/v), 1 mM sodium pyruvate, 10 mM HEPES, 2 mM glutamine and 50 μM β-mercaptoethanol, […] Hygromycin-B. HEK293 cells were grown in DMEM High Glucose media (Gibco) supplemented with 10% FBS. […]
INS-1 or isogenic IRE1α-overexpressing INS-1 cells were plated onto Poly-D-Lysine coated tissue culture plate and grown for 48 hrs. […] PCR fragments were then digested by PstI, resolved on 3% agarose gels, stained with EtBr and quantified by densitometry using ImageJ (NIH). For standard mRNA detection, generally […] total RNA was reverse transcribed using the QuantiTect Reverse Transcription Kit (QIAGEN). […]

T1 sequence (O75460 547-977): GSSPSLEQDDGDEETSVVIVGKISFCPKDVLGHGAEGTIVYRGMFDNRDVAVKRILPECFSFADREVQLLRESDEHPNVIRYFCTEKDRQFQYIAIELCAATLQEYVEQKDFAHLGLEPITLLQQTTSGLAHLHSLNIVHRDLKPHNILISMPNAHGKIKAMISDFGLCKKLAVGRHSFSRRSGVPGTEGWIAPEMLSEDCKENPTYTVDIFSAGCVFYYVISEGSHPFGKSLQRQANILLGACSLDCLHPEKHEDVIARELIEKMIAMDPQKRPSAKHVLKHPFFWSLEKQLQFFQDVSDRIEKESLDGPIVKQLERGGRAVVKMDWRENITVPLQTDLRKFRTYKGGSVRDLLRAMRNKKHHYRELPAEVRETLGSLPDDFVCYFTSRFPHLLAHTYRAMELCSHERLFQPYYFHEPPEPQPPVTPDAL
dpIRE1α*, sequence (O75460 547-977): as above

IC50 [1]: 5.1 nM
Structure (SMILES): CCc1cc(-c2ccc(NS(=O)(=O)C3CC3)nc2OC)cc2cnc(N[C@H]3CC[C@H](N)CC3)nc12 [LBC-0000408, N-(5-(2-(((1r,4r)-4-aminocyclohexyl)amino)-8-ethylquinazolin-6-yl)-6-methoxypyridin-2-yl) cyclopropane sulfonamide]

IC50 [1]: 7.4 nM
Structure (SMILES): CCc1cc(-c2ccc(NS(=O)(=O)CCC(F)(F)F)nc2OC)cc2cnc(N[C@H]3CC[C@H](N)CC3)nc12 [LBC-0000406, N-(5-(2-(((1r,4r)-4-aminocyclohexyl)amino)-8-ethylquinazolin-6-yl)-6-methoxypyridin-2-yl)-3,3,3-trifluoropropane-1-sulfonamide]

IC50 [1]: 7.5 nM
Structure (SMILES): CCc1cc(-c2ccc(NS(=O)(=O)CC(F)(F)F)nc2OC)cc2cnc(N[C@H]3CC[C@H](N)CC3)nc12 [LBC-0000407, N-(5-(2-(((1r,4r)-4-aminocyclohexyl)amino)-8-ethylquinazolin-6-yl)-6-methoxypyridin-2-yl)-2,2,2-trifluoroethane-1-sulfonamide]

IC50 [1]: 5.1 nM
Structure (SMILES): CCc1cc(-c2ccc(NS(=O)(=O)c3ccccc3Cl)nc2OC)cc2cnc(N[C@H]3CC[C@H](N)CC3)nc12 [LBC-0000405]

fold lowering of Kdimer of dpIRE1α* when kinase domain complexed to ligand [2]: over 80 fold
Structure (SMILES): O=C(Nc1c[nH]nc1-c1nc2ccc(CN3CCOCC3)cc2[nH]1)NC1CC1 [AT9283]

fold lowering of Kdimer of dpIRE1α* when kinase domain complexed to ligand [2]: over 80 fold
Structure (SMILES): NC(=O)Nc1cc(-c2cccc(F)c2)sc1C(=O)N[C@H]1CCCNC1 [AZD7762]
formation of RNase active dimers of IRE1α* [3]: promotes the formation of the RNase active dimer
formation of the RNase active dimer of dpIRE1α* ([2]; dpIRE1α*-ligand complex): promotes the formation of the RNase active dimer

Structure (SMILES): Cc1ccc2c(NS(=O)(=O)c3ccccc3Cl)cccc2c1Oc1ncccc1-c1ccnc(N[C@H]2CCCNC2)n1 [KIRA8]
formation of RNase active dimers of IRE1α* [3]: unable to form RNase active dimers at any concentration tested
XBP1 splicing [4]: completely suppresses XBP1 splicing
